Measurements reported in the supplement of paper PMC10307832.

Assays:
Test in all cases: relative viability (nuclei count vs DMSO), 5 days (fraction); higher = more cells survive
NCI-H596 = settings: first compound 4 µM
In short: (§1)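 Dosing by pin tool came one day after lung cancer cell lines were seeded in 1536-well plates, using either one drug or a fixed anchor-drug dose plus five library-drug doses (not always all listed) in √10 steps. After 5 days, nuclei were counted on 4× images. Relative viability is treated-well nuclei count divided by vehicle-well nuclei count, and values are medians of duplicate plates.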

SK-MES-1 = tested on: SK-MES-1
In short: as §1

NCI-H1792 = tested on: NCI-H1792
In short: as §1

SK-LU-1 = tested on: SK-LU-1
In short: as §1

NCI-H3122 = tested on: NCI-H3122
In short: as §1

NCI-H1793 = tested on: NCI-H1793
In short: as §1

PC-3 [JPC-3] = tested on: PC-3 [JPC-3]
In short: as §1

SW 900 = tested on: SW 900
In short: as §1

COR-L23 = tested on: COR-L23
In short: as §1

NCI-H1944 = tested on: NCI-H1944
In short: as §1

LXF-289 = tested on: LXF-289
In short: as §1

ABC-1 = tested on: ABC-1
In short: as §1

How did the relative viability (NCI-H596) turn out when COc1cc(N2CCC(C(N)=O)CC2)ccc1Nc1nc(N)c(Cl)c(Nc2ccccc2S(=O)(=O)C(C)C)n1 [HG-5-88-01] + Nc1ncn([C@H]2C[C@H](O)[C@@H](CO)O2)c(=O)n1 [Decitabine] (partner 2 µM) was run?
Its relative viability is 0.974.

And the relative viability (SK-MES-1; first compound 0.04 µM)?
Its relative viability is 0.408.

What about the relative viability (SK-MES-1; first compound 0.1265 µM) of the same compound?
Its relative viability is 0.368.

And the relative viability (SK-MES-1; first compound 0.4 µM)?
The relative viability was 0.407.

And the relative viability (SK-MES-1; first compound 1.265 µM)?
Its relative viability is 0.459.

And the relative viability (SK-MES-1; first compound 4 µM)?
Its relative viability is 0.34.

What about the relative viability (NCI-H1792; first compound 0.04 µM) of the same compound?
The relative viability was 0.628.

What about the relative viability (NCI-H1792; first compound 0.1265 µM) of the same compound?
Its relative viability is 0.452.

What about the relative viability (NCI-H1792; first compound 0.4 µM) of the same compound?
The relative viability was 0.579.

And the relative viability (NCI-H1792; first compound 1.265 µM)?
Its relative viability is 0.564.

And the relative viability (NCI-H1792; first compound 4 µM)?
The relative viability was 0.545.

And the relative viability (SK-LU-1; first compound 0.04 µM)?
The relative viability was 0.525.

And the relative viability (SK-LU-1; first compound 0.1265 µM)?
The relative viability was 0.595.

What about the relative viability (SK-LU-1; first compound 0.4 µM) of the same compound?
The relative viability was 0.598.

And the relative viability (SK-LU-1; first compound 1.265 µM)?
Its relative viability is 0.598.

And the relative viability (SK-LU-1; first compound 4 µM)?
The relative viability was 0.344.

What about the relative viability (NCI-H3122; first compound 0.04 µM) of the same compound?
Its relative viability is 0.365.

What about the relative viability (NCI-H3122; first compound 0.1265 µM) of the same compound?
Its relative viability is 0.279.

And the relative viability (NCI-H3122; first compound 0.4 µM)?
Its relative viability is 0.223.

What about the relative viability (NCI-H3122; first compound 1.265 µM) of the same compound?
The relative viability was 0.127.

What about the relative viability (NCI-H3122; first compound 4 µM) of the same compound?
The relative viability was 0.0935.

And the relative viability (NCI-H1793; first compound 0.04 µM)?
Its relative viability is 0.554.

What about the relative viability (NCI-H1793; first compound 0.1265 µM) of the same compound?
Its relative viability is 0.518.

What about the relative viability (NCI-H1793; first compound 0.4 µM) of the same compound?
The relative viability was 0.701.

What about the relative viability (NCI-H1793; first compound 1.265 µM) of the same compound?
The relative viability was 0.408.

And the relative viability (NCI-H1793; first compound 4 µM)?
The relative viability was 0.499.

And the relative viability (PC-3 [JPC-3]; first compound 0.04 µM)?
The relative viability was 0.762.

What about the relative viability (PC-3 [JPC-3]; first compound 0.1265 µM) of the same compound?
The relative viability was 0.826.

And the relative viability (PC-3 [JPC-3]; first compound 0.4 µM)?
Its relative viability is 0.872.

And the relative viability (PC-3 [JPC-3]; first compound 1.265 µM)?
The relative viability was 0.546.

What about the relative viability (PC-3 [JPC-3]; first compound 4 µM) of the same compound?
The relative viability was 0.423.

And the relative viability (SW 900; first compound 0.04 µM)?
Its relative viability is 0.419.

And the relative viability (SW 900; first compound 0.1265 µM)?
The relative viability was 0.441.

And the relative viability (SW 900; first compound 0.4 µM)?
Its relative viability is 0.528.

What about the relative viability (SW 900; first compound 1.265 µM) of the same compound?
Its relative viability is 0.492.

What about the relative viability (SW 900; first compound 4 µM) of the same compound?
Its relative viability is 0.436.

What about the relative viability (COR-L23; first compound 0.04 µM) of the same compound?
The relative viability was 0.405.

And the relative viability (COR-L23; first compound 0.1265 µM)?
Its relative viability is 0.531.

What about the relative viability (COR-L23; first compound 0.4 µM) of the same compound?
Its relative viability is 0.543.

And the relative viability (COR-L23; first compound 1.265 µM)?
The relative viability was 0.379.

And the relative viability (COR-L23; first compound 4 µM)?
Its relative viability is 0.391.

What about the relative viability (NCI-H1944; first compound 0.04 µM) of the same compound?
Its relative viability is 0.398.

What about the relative viability (NCI-H1944; first compound 0.1265 µM) of the same compound?
The relative viability was 0.417.

What about the relative viability (NCI-H1944; first compound 0.4 µM) of the same compound?
The relative viability was 0.554.

What about the relative viability (NCI-H1944; first compound 1.265 µM) of the same compound?
Its relative viability is 0.457.

And the relative viability (NCI-H1944; first compound 4 µM)?
Its relative viability is 0.514.

And the relative viability (LXF-289; first compound 0.04 µM)?
The relative viability was 0.324.

And the relative viability (LXF-289; first compound 0.1265 µM)?
Its relative viability is 0.402.

What about the relative viability (LXF-289; first compound 0.4 µM) of the same compound?
Its relative viability is 0.464.

What about the relative viability (LXF-289; first compound 1.265 µM) of the same compound?
Its relative viability is 0.423.

And the relative viability (LXF-289; first compound 4 µM)?
Its relative viability is 0.427.

And the relative viability (ABC-1; first compound 0.04 µM)?
The relative viability was 0.998.

And the relative viability (ABC-1; first compound 0.1265 µM)?
The relative viability was 1.09.

What about the relative viability (ABC-1; first compound 0.4 µM) of the same compound?
The relative viability was 1.1.

What about the relative viability (ABC-1; first compound 1.265 µM) of the same compound?
The relative viability was 0.884.

What about the relative viability (ABC-1; first compound 4 µM) of the same compound?
Its relative viability is 0.946.
